Data on five compounds can be found in US20220055997A1, “ANTIMICROBIAL COMPOUNDS AND COMPOSITIONS COMPRISING SAME” (B.G. NEGEV TECHNOLOGIES AND APPLICATIONS LTD., AT …, priority 2019, published 2022).

The subject of one experiment is M. smegmatis ribosomes. Kind of experiment: bacterial coupled transcription/translation assay, luciferase reporter (in vitro translation). The conditions noted are these: for inhibition of translation of a reporter gene by Mtb ribosomes in vitro / inhibition of luciferase activity compared with chloramphenicol / IC50: FIG. 4; for inhibition of translation of a reporter gene by Mtb ribosomes in vitro: dose-dependent; for inhibition of luciferase activity compared with chloramphenicol: luciferase activity vs compound concentration; for IC50: protein synthesis by in vitro translation reaction, M. smegmatis ribosomes. It is filed as biochemical. For orientation: In a reporter assay the amount or activity of a reporter protein is the signal.

Experiment [1] relates to 29mer RNA SEQ ID NO: 1, hairpin 91 of M. tuberculosis PTC. Kind of experiment: T2 relaxation (CPMG) NMR fragment screen. It is filed as binding.

Turning to `Cc1nc(CN2CCN(Cc3csc(-c4ccccc4)n3)CC2)cs1` [Compound Nr. 2, 1-[(2-methylthiazol-4-yl)methyl]-4-[(2-phenylthiazol-4-yl)methyl]piperazine], in the experiment with M. smegmatis ribosomes, the “inhibition of translation of a reporter gene by Mtb ribosomes in vitro” value is given as “inhibit translation of a reporter gene”, the “inhibition of luciferase activity compared with chloramphenicol” value is on record as “as effective inhibitor of luciferase activity as chloramphenicol” and half-maximal inhibition (IC50) required 8.9 µM. Further, the “inhibition activity compared among compounds” value with M. smegmatis ribosomes (Nr. 2 compared to compounds Nr. 3, 4 and 5, data not shown) is “higher inhibition activity”.
For `CCN1CCN(Cc2csc(-c3ccccc3)n2)CC1` [Compound Nr. 8, 1-ethyl-4-[(2-phenylthiazol-4-yl)methyl]piperazine], in the experiment on M. smegmatis ribosomes, the “inhibition of translation of a reporter gene by Mtb ribosomes in vitro” value was “inhibit translation of a reporter gene”, the “inhibition of luciferase activity compared with chloramphenicol” value is reported as “about twice as better than both” and 4.8 µM corresponded to half-maximal inhibition (IC50).
Take `CNCc1ccc(-c2nccs2)cc1` [N-methyl-4-(1,3-thiazol-2-yl)benzylamine]: in experiment [1] (pool number 2 of three pools of 10 fragments, with and without target RNA, FIG. 3), the “hit in T2-edited (CPMG NMR) mini-screen” value is listed as “hits”.
For the compound `NCc1csc(-c2cccc(Cl)c2)n1` [[2-(3-chlorophenyl)-1,3-thiazol-4-yl]methanamine], the “change in T2 upon addition of RNA” value in experiment [1] (pool 81, peaks 1-3, 1D CPMG spectra, FIG. 7A) was “largest change in T2”.
For the compound `O=C(N[C@H](CO)[C@H](O)c1ccc([N+](=O)[O-])cc1)C(Cl)Cl` [chloramphenicol, reference compound], the IC50 – broadly, the concentration at which inhibition is half-maximal – against M. smegmatis ribosomes is 9.2 µM.
